According to patent US20140039008A1, “METHODS FOR THE ADMINISTRATION OF ILOPERIDONE” (VANDA PHARMACEUTICALS, INC., priority 2004, published 2014):

Tests used:
[1] = molecular target: HERG channel (Homo sapiens, UniProt Q12809); assay: affinity for the HERG channel; assay type: binding
[2] = lipophilicity; assay type: physicochemical; settings: compared to iloperidone
[3] = Example 1: blood concentrations of P88 and P95 after iloperidone by CYP2D6 genotype, with and without inhibitor; assay type: in vivo, human; parameters: unit not given here; settings: at Tmax of P88, without inhibitor
Description: The research leading to the present invention was designed to examine the effect of different doses of iloperidone relative to the effect of ziprasidone and quetiapine on QTc duration under carefully controlled conditions. To further evaluate the possible relationship between exposure to iloperidone and the comparators to QTc duration, reassessment after pharmacological inhibition of the principle metabolic pathways for each drug, under steady-state conditions, was also planned.
Blood samples for pharmacogenetic analysis were collected at screening. Two polymorphisms previously associated with poor metabolizing status were genotyped in the CYP2D6 locus, and 251 genotypes were collected. The individual genotypes were studied for detection of association between genotype class and concentrations of iloperidone and its metabolites P88 and P95. The functional effect of the polymorphisms was also evaluated by analyzing the effect of the addition of the CYP2D6 inhibitor paroxetine on the concentrations of the parent drug and its metabolites.
The addition of metabolic inhibitors in this study therefore allowed for an evaluation of the effect of increasing blood-concentration of iloperidone and/or its metabolites on QT duration. More specifically, this study allowed for an evaluation of the effect of iloperidone on QTc before and after the addition of the CYP2D6 inhibitor, paroxetine, as well as before and after the addition of the CYP3A4 inhibitor, ketoconazole.
128 individuals consented to the pharmacogenetic study. Blood samples were collected according to the pharmacogenetics protocol and after the consent of patients. The DNA was extracted from whole blood by Covance using the PUREGENE DNA isolation kit (D-50K).
The 128 individuals that participated were a good representation of the total sample of 165 individuals that participated in the trial. 22 of 29 total were from the iloperidone 8 mg bid group, 30 of 34 were from the iloperidone 12 mg bid group, 22 of 31 from the 24 mg qd group, 3 of 5 of the risperidone group, 28 of 33 of the ziprazidone group, and 23 of 33 of the quetiapine group.
The genotype effect of the two CYP2D6 polymorphisms on period 1 concentrations was evaluated using the following ANOVA model. Concentrations of iloperidone, P88, and P95 at Period 1, without inhibitor, at the time at which maximum blood concentration of the parent compound or metabolite was reached (Tmax) were used as the dependent variable, the genotypes of each polymorphism as classes and the treatment as a covariate. In order to adjust for treatment effects after the single dose of iloperidone, the 8 mg bid was coded as 8, the 12 mg bid as 12 and the 24 mg qd as 24.
The function of these polymorphisms on the degree of inhibition of the CYP2D6 enzyme was calculated from the ratio of concentrations of P88 and P95 in period 2, after the addition of the inhibitor of CYP2D6. The concentrations of iloperidone and/or its metabolites (e.g., P88 and P95) may be determined in period 1 and/or period 2 by any known or later-developed method or device, including titration.
In order to understand the functional significance of the two CYP2D6 polymorphisms on the activity of the enzyme, the association of the various genotypes with the relative concentrations of the metabolites P88 and P95 were examined. It is known that P88 is degraded by CYP2D6 and that CYP2D6 is involved in the synthesis of P95. The relative amounts of P88 and P95 would therefore be controlled by the activity of the CYP2D6 enzyme. The ratio of P88/P95 was calculated before inhibition in Period 1 and at the Tmax of the two metabolites, as well as the ratio of P88/P95 in Period 2 after the addition of the CYP2D6 inhibitor paroxetine. In individuals with the wild type enzyme the concentration of P88 is expected to increase in Period 2, while in the same period the concentration of P95 is expected to decline.

[4] = interaction study: addition of CYP2D6 inhibitor fluoxetine, AUC; settings: addition of CYP2D6 inhibitor fluoxetine along with iloperidone

Chain of HERG channel (Q12809 whole entry): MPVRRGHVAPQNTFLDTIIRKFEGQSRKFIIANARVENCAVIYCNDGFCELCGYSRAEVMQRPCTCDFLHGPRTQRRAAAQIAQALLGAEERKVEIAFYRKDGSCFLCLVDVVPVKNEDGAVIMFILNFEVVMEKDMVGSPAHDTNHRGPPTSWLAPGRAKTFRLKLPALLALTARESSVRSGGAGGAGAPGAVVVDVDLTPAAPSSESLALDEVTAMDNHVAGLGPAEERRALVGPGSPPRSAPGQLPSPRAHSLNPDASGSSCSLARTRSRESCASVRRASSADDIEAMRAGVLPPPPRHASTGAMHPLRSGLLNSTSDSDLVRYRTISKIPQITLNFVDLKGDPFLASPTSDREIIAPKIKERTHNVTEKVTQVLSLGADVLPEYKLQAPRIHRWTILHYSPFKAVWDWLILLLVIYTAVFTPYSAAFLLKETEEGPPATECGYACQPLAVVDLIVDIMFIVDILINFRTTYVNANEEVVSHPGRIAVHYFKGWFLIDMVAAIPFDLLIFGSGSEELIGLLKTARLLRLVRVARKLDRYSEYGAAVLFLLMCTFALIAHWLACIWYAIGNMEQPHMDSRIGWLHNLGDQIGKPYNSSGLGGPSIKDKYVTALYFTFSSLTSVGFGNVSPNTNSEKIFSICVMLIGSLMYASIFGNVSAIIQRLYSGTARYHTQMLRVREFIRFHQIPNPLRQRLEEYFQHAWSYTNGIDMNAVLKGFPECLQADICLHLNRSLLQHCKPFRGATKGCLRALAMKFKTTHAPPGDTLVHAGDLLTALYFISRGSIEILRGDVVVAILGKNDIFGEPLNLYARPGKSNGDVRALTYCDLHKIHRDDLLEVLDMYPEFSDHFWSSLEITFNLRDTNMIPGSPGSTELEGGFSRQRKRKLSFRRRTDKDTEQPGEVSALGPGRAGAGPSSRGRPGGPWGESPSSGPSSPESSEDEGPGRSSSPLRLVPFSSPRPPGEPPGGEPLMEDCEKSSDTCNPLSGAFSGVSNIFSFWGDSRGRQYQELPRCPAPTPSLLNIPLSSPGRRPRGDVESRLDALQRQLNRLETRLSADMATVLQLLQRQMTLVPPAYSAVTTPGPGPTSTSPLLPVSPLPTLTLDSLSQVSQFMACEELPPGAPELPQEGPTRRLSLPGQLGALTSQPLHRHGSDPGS

Row | SMILES | affinity for the HERG channel [1] | lipophilicity [2] | P88 concentrations in Period 1, LSMeans ([3]; CYP2D6C100T CC) | P88 concentrations in Period 1, LSMeans ([3]; CYP2D6C100T CT) | P88 concentrations in Period 1, LSMeans ([3]; CYP2D6C100T TT) | P88 concentrations in Period 1, LSMeans ([3]; CYP2D6G1846A AA) | P88 concentrations in Period 1, LSMeans ([3]; CYP2D6G1846A AG) | P88 concentrations in Period 1, LSMeans ([3]; CYP2D6G1846A GG) | increase of the area under the curve (AUC) [4] [%]
1 | COc1cc(C(=O)O)ccc1OCCCN1CCC(c2noc3cc(F)ccc23)CC1 [P95] | very low affinity | less lipophilic | – | – | – | – | – | – | –
2 | COc1cc(C(C)O)ccc1OCCCN1CCC(c2noc3cc(F)ccc23)CC1 (stereo not drawn) [P88] | – | – | 21.03 | 33.16 | 51.00 | 62.70 | 31.40 | 21.03 | 119
